According to article PMC8745314, “Novel Tetrazole-Based Antimicrobial Agents Targeting Clinical Bacteria Strains: Exploring the Inhibition of Staphylococcus aureus DNA Topoisomerase IV and Gyrase” (International Journal of Molecular Sciences, 2021):
Converted amounts (≈) assume the structure as drawn. Read-outs that look alike come from different tables or passages of the source.

Assays:
Type in all cases: cell-based
S. aureus ATCC 29213 = assay: MIC broth microdilution, standard strain; settings: Staphylococcus aureus, ATCC29213; S. aureus ATCC 29213, standard strain, 19 h at 35 °C; read-out: minimal inhibitory concentration (MIC)
Experimental: (§1) All synthesized compounds were tested in vitro against a set of bacteria, including representative standard Gram-positive and Gram-negative rods. Compounds were screened for their minimal inhibitory concentrations (MICs). […] The antimicrobial assays were conducted using reference strains of bacteria derived from international microbe collections: American Type Culture Collection (ATCC) and National Collection of Type Culture (NCTC). The following standard strains of bacteria were used: Gram-positive-Staphylococcus aureus NCTC 4163, Staphylococcus aureus ATCC 25923, Staphylococcus aureus ATCC 6538, Staphylococcus aureus ATCC 29213, Staphylococcus epidermidis ATCC 12228, Staphylococcus epidermidis ATCC 35984, Gram-negative: Escherichia coli ATCC 25922, Pseudomonas aeruginosa ATCC 15442. Clinical strains of bacteria used in this study: Gram-positive: Staphylococcus epidermidis 5253, Staphylococcus epidermidis 4243, Staphylococcus aureus […], Staphylococcus aureus […] and Gram-negative: Escherichia coli 520, Escherichia coli 600, Klebsiella pneumoniae 510 and Pseudomonas aeruginosa 659 were obtained from the collection of the Department of Pharmaceutical Microbiology, Medical University of Warsaw, Poland and they were isolated from different biological materials taken from the patients hospitalized in the Warsaw Medical University hospitals. […] MIC was determined by the two-fold serial broth microdilution method in 96-well microtitration plates using Mueller-Hinton II broth medium (Becton Dickinson, Franklin Lakes, NJ, USA). The final inoculum of all studied bacteria was 10^6 CFU/mL (colony forming unit per milliliter). The stock solution of tested compounds was prepared in dimethyl sulfoxide (DMSO) and diluted to a maximum of 1% of solvent content with a sterile medium.

S. aureus ATCC 6538 = assay: MIC broth microdilution, standard strain; settings: Staphylococcus aureus, ATCC6538; S. aureus ATCC 6538, standard strain, 19 h at 35 °C; read-out: minimal inhibitory concentration (MIC)
Experimental: as §1

[1] = system: S. epidermidis ATCC 12228; assay: MIC broth microdilution, standard strain; settings: Staphylococcus epidermidis, ATCC12228; S. epidermidis ATCC 12228, standard strain, 19 h at 35 °C; read-out: minimal inhibitory concentration (MIC)
Experimental: as §1

[2] = system: S. epidermidis ATCC 35984; assay: MIC broth microdilution, standard strain; settings: Staphylococcus epidermidis, ATCC35984; S. epidermidis ATCC 35984, standard strain, 19 h at 35 °C; read-out: minimal inhibitory concentration (MIC)
Experimental: as §1

S. aureus ATCC 25923 = assay: MIC broth microdilution, standard strain; settings: Staphylococcus aureus, ATCC25923; S. aureus ATCC 25923, standard strain, 19 h at 35 °C; read-out: minimal inhibitory concentration (MIC)
Experimental: (§2) All synthesized compounds were tested in vitro against a set of bacteria, including representative standard Gram-positive and Gram-negative rods. Compounds were screened for their minimal inhibitory concentrations (MICs). […] These three compounds were also found to be good inhibitors of the growth of Gram-negative rods: […] The antimicrobial assays were conducted using reference strains of bacteria derived from international microbe collections: American Type Culture Collection (ATCC) and National Collection of Type Culture (NCTC). The following standard strains of bacteria were used: Gram-positive-Staphylococcus aureus NCTC 4163, Staphylococcus aureus ATCC 25923, Staphylococcus aureus ATCC 6538, Staphylococcus aureus ATCC 29213, Staphylococcus epidermidis ATCC 12228, Staphylococcus epidermidis ATCC 35984, Gram-negative: Escherichia coli ATCC 25922, Pseudomonas aeruginosa ATCC 15442. Clinical strains of bacteria used in this study: Gram-positive: Staphylococcus epidermidis 5253, Staphylococcus epidermidis 4243, Staphylococcus aureus […], Staphylococcus aureus […] and Gram-negative: Escherichia coli 520, Escherichia coli 600, Klebsiella pneumoniae 510 and Pseudomonas aeruginosa 659 were obtained from the collection of the Department of Pharmaceutical Microbiology, Medical University of Warsaw, Poland and they were isolated from different biological materials taken from the patients hospitalized in the Warsaw Medical University hospitals. Antimicrobial activity was examined by the minimal inhibitory concentration (MIC) method under standard procedures provided by CLSI with some modifications. MIC was determined by the two-fold serial broth microdilution method in 96-well microtitration plates using Mueller-Hinton II broth medium (Becton Dickinson, Franklin Lakes, NJ, USA). The final inoculum of all studied bacteria was 10^6 CFU/mL (colony forming unit per milliliter). The stock solution of tested compounds was prepared in dimethyl sulfoxide (DMSO) and diluted to a maximum of 1% of solvent content with a sterile medium.

S. aureus NCTC 4163 = assay: MIC broth microdilution, standard strain; settings: Staphylococcus aureus, NCTC4163; S. aureus NCTC 4163, standard strain, 19 h at 35 °C; read-out: minimal inhibitory concentration (MIC)
Experimental: as §2

[3] = system: clinical strains (S. aureus, S. epidermidis, E. coli, K. pneumoniae, P. aeruginosa); assay: MIC ranges over the panel of clinical strains
Experimental: In the next stage of the experiment, 8 of 11 compounds were selected for a clinical strain activity evaluation against S. aureus, S. epidermidis, E. coli, K. pneumoniae, and P. aeruginosa. […] Additionally, all three inhibited the growth of all clinical Staphylococci panels: S. aureus (T5592; T5591) and S. epidermidis (5253; 4243) with MIC values of 0.8 μg/mL.
The antimicrobial assays were conducted using reference strains of bacteria derived from international microbe collections: American Type Culture Collection (ATCC) and National Collection of Type Culture (NCTC). The following standard strains of bacteria were used: Gram-positive—Staphylococcus aureus NCTC 4163, Staphylococcus aureus ATCC 25923, Staphylococcus aureus ATCC 6538, Staphylococcus aureus ATCC 29213, Staphylococcus epidermidis ATCC 12228, Staphylococcus epidermidis ATCC 35984, Gram-negative: Escherichia coli ATCC 25922, Pseudomonas aeruginosa ATCC 15442. Clinical strains of bacteria used in this study: Gram-positive: Staphylococcus epidermidis 5253, Staphylococcus epidermidis 4243, Staphylococcus aureus T5592, Staphylococcus aureus T5591 and Gram-negative: Escherichia coli 520, Escherichia coli 600, Klebsiella pneumoniae 510 and Pseudomonas aeruginosa 659 were obtained from the collection of the Department of Pharmaceutical Microbiology, Medical University of Warsaw, Poland and they were isolated from different biological materials taken from the patients hospitalized in the Warsaw Medical University hospitals. Antimicrobial activity was examined by the minimal inhibitory concentration (MIC) method under standard procedures provided by CLSI with some modifications. MIC was determined by the two-fold serial broth microdilution method in 96-well microtitration plates using Mueller–Hinton II broth medium (Becton Dickinson, Franklin Lakes, NJ, USA). The final inoculum of all studied bacteria was 10^6 CFU/mL (colony forming unit per milliliter). The stock solution of tested compounds was prepared in dimethyl sulfoxide (DMSO) and diluted to a maximum of 1% of solvent content with a sterile medium.

[4] = 19 h, against Gram-positive clinical strains, read-out: MIC values, range
[5] = 19 h, clinical (hospital) strains, read-out: MIC values, range
[6] = all clinical Staphylococci panels: S. aureus (T5592; T5591) and S. epidermidis (5253; 4243), read-out: MIC values

| SMILES | MIC (S. aureus ATCC 29213) [µg/mL] | MIC (S. aureus ATCC 6538) [µg/mL] | MIC [1] [µg/mL] | MIC [2] [µg/mL] | MIC (S. aureus ATCC 25923) [µg/mL] | MIC (S. aureus NCTC 4163) [µg/mL] | MIC [3, 4] [µg/mL] | MIC [3, 5] [µg/mL] | MIC [3, 6] [µg/mL] |
| --- | --- | --- | --- | --- | --- | --- | --- | --- | --- |
| CC1=C(C)C2(C)CC1(C)C1C(=O)N(Nc3nnnn3-c3ccc([N+](=O)[O-])cc3)C(=O)C12 (centres unmarked) [Compound 4, 4,5,6,7-Tetramethyl-2-((1-(4-nitrophenyl)-1H-tetrazol-5-yl)amino)-3a,4,7,7a-tetrahydro-1H-4,7-methanoisoindole-1,3(2H)-dione] | 16 (≈ 37.8 µM) | 32 (≈ 75.6 µM) | 32 (≈ 75.6 µM) | 32 (≈ 75.6 µM) | 8 (≈ 18.9 µM) | 16 (≈ 37.8 µM) | 2 to 32 (≈ 4.72 to 75.6 µM) |  |  |
| CC1=C(C)C2(C)CC1(C)C1C(=O)N(Nc3nnnn3-c3ccccc3)C(=O)C12 (centres unmarked) [Compound 6, 4,5,6,7-Tetramethyl-2-((1-phenyl-1H-tetrazol-5-yl)amino)-3a,4,7,7a-tetrahydro-1H-4,7-methanoisoindole-1,3(2H)-dione] | 4 (≈ 10.6 µM) | 2 (≈ 5.28 µM) | 16 (≈ 42.3 µM) | 4 (≈ 10.6 µM) | 2 (≈ 5.28 µM) | 2 (≈ 5.28 µM) | 2 to 32 (≈ 5.28 to 84.6 µM) |  |  |
| CC1=C(C)C2(C)CC1(C)C1C(=O)N(Nc3nnnn3-c3cccc(C(F)(F)F)c3)C(=O)C12 (centres unmarked) [Compound 1, 4,5,6,7-Tetramethyl-2-((1-(3-(trifluoromethyl)phenyl)-1H-tetrazol-5-yl)amino)-3a,4,7,7a-tetrahydro-1H-4,7-methanoisoindole-1,3(2H)-dione] | 0.2 (≈ 0.448 µM) | 0.2 (≈ 0.448 µM) | 3.2 (≈ 7.17 µM) | 0.2 (≈ 0.448 µM) | 0.2 (≈ 0.448 µM) | 0.2 (≈ 0.448 µM) |  | 0.8 to 3.2 (≈ 1.79 to 7.17 µM) | 0.8 (≈ 1.79 µM) |
| CC(C)C12C=CC(C)(CC1)C1C(=O)N(Nc3nnnn3-c3ccccc3Br)C(=O)C12 (centres unmarked) [Compound 9, 2-((1-(2-Bromophenyl)-1H-tetrazol-5-yl)amino)-4-isopropyl-7-methyl-3a,4,7,7a-tetrahydro-1H-4,7-ethanoisoindole-1,3(2H)-dione] | 64 (≈ 136 µM) | 64 (≈ 136 µM) | 128 (≈ 272 µM) | 64 (≈ 136 µM) | 64 (≈ 136 µM) | 64 (≈ 136 µM) | 2 to 32 (≈ 4.24 to 67.9 µM) |  |  |
| CC1=C(C)C2(C)CC1(C)C1C(=O)N(Nc3nnnn3-c3ccccc3Br)C(=O)C12 (centres unmarked) [Compound 3, 2-((1-(2-Bromophenyl)-1H-tetrazol-5-yl)amino)-4,5,6,7-tetramethyl-3a,4,7,7a-tetrahydro-1H-4,7-methanoisoindole-1,3(2H)-dione] | 0.2 (≈ 0.437 µM) | 0.2 (≈ 0.437 µM) | 2 (≈ 4.37 µM) | 0.2 (≈ 0.437 µM) | 0.1 (≈ 0.219 µM) | 0.1 (≈ 0.219 µM) |  | 0.8 to 3.2 (≈ 1.75 to 7 µM) | 0.8 (≈ 1.75 µM) |
| CC1=C(C)C2(C)CC1(C)C1C(=O)N(Nc3nnnn3-c3ccccc3Cl)C(=O)C12 (centres unmarked) [Compound 2, 2-((1-(2-Chlorophenyl)-1H-tetrazol-5-yl)amino)-4,5,6,7-tetramethyl-3a,4,7,7a-tetrahydro-1H-4,7-methanoisoindole-1,3(2H)-dione] | 0.8 (≈ 1.94 µM) | 0.4 (≈ 0.969 µM) | 3.2 (≈ 7.75 µM) | 0.4 (≈ 0.969 µM) | 0.4 (≈ 0.969 µM) | 0.4 (≈ 0.969 µM) |  | 0.8 to 3.2 (≈ 1.94 to 7.75 µM) | 0.8 (≈ 1.94 µM) |
| CC(C)C12C=CC(C)(CC1)C1C(=O)N(Nc3nnnn3-c3ccc([N+](=O)[O-])cc3)C(=O)C12 (centres unmarked) [Compound 8, 4-Isopropyl-7-methyl-2-((1-(4-nitrophenyl)-1H-tetrazol-5-yl)amino)-3a,4,7,7a-tetrahydro-1H-4,7-ethanoisoindole-1,3(2H)-dione] | 8 (≈ 18.3 µM) | 8 (≈ 18.3 µM) | 16 (≈ 36.6 µM) | 16 (≈ 36.6 µM) | 8 (≈ 18.3 µM) | 8 (≈ 18.3 µM) | 2 to 32 (≈ 4.57 to 73.1 µM) |  |  |
| Cc1ccc(-n2nnnc2NN2C(=O)C3C(C2=O)C2(C(C)C)C=CC3(C)CC2)cc1 (centres unmarked) [Compound 10, 4-Isopropyl-7-methyl-2-((1-(p-tolyl)-1H-tetrazol-5-yl)amino)-3a,4,7,7a-tetrahydro-1H-4,7-ethanoisoindole-1,3(2H)-dione] | 8 (≈ 19.7 µM) | 4 (≈ 9.84 µM) | 32 (≈ 78.7 µM) | 8 (≈ 19.7 µM) | 4 (≈ 9.84 µM) | 4 (≈ 9.84 µM) | 2 to 32 (≈ 4.92 to 78.7 µM) |  |  |
